{"source": "patent US20150366839A1", "about": "“Schisantherin A for the treatment of neurodegenerative diseases” (priority 2014, published 2015)", "key": {"Akt": {"system": "Akt", "test": "p-Akt level after 6-OHDA, Western blot", "assay_type": "cell-based, Human", "procedure": "After treatment, SH-SY5Y cells were washed three times with PBS and then lysis with RIPA lysis buffer containing 1% PMSF and 1% Protease Inhibitor Cocktail and incubated for 30 min on ice. Cell lysates were centrifuged at 12,500 g for 20 min at 4° C. The supernatant was separated and the amount of protein was determined using the BCA protein assay kit (Thermo Scientific Pierce, USA). Protein samples (30 μg) were separated by SDS-PAGE (10% (w/v)) polyacrylamide gel and then transferred to a polyvinylidene difluoride (PVDF) membrane (Bio-Rad, Hercules, Calif.). Subsequently, the membrane was blocked with 5% (v/v) non-fat milk in PBST (PBS containing 0.1% Tween 20) for 1 h at room temperature. The blots were incubated overnight at 4° C. with primary antibodies. After three washes with PBST, the membranes were incubated with horseradish peroxidase-conjugated secondary antibodies (1:2000) in PBST with 5% non-fat milk for 1 h at room temperature. […] Quantitative assessment of protein bands was done with Gel Doc™ XRS equipped with Quantity One software.\nThe inventors also investigated the contribution of the Akt pathway in the neuroprotective effects of SchiA. The inventors measured phosphorylation-Akt (p-Akt) levels after pre-treated with 60 μM SchiA for 12 h and then exposed to 400 μM 6-OHDA for another 4 h (FIGS. 6A and 6B). […]"}, "[1]": {"system": "TH-positive neurons in the SNpc", "assay_type": "in vivo, C57BL/6 mice", "details": "for neuroprotective effect on TH-positive neurons: then MPTP", "procedure": "Male C57BL/6 mice (20±2 g body weight, 6-8 weeks of age) were purchased from the Laboratory Animal Center of Guangdong Province and were fed six animals per cage, under a 12 h light/dark cycle with ad libitum access to food and water. Mice were handled daily and allowed 3 days to acclimate before each treatment. Six groups of mice (n=7/group, total 42 mice) were assigned for the neuroprotective study in vivo. SchiA at different concentrations (30, 100 or 300 mg/kg/day), positive control drug (Selegiline, 10 mg/kg/day) or vehicle (Tween-80/ml propylene glycol/alcohol/5% PVA, 1:1:1:17, v/v/v/v) were administered by intragastric gavage (i.g.) daily for 14 days. Then mice were injected by intraperitoneal (i.p.) with 30 mg/kg MPTP hydrochloride (Sigma-Aldrich) or physiological saline daily on days 15-19 (total 5 days). In order to allow for the full conversion of MPTP to its active metabolite MPP^+, a further 3 days of resting period followed (Levites, Weinreb et al. 2001). All animal experiments were conducted according to the ethical guidelines for animal experiment of Jinan University. The experimental protocols were approved by the Ethics Committee for Animal Experiments of Jinan University (permit number 20110810).\nThree days after MPTP treatment, animals were anesthetized by i.p. administration of […] chloral hydrate (10% (w/v) dissolved in distilled water) and perfused intracardially with 100 mL PBS (0.1 mmol/L, pH 7.4) followed by 150 mL 4% paraformaldehyde (PFA) in PBS. After intracardial perfusion, brains were collected and post-fixed in 4% PFA for another 24 h at 4° C., embedded in paraffin, and cut into 6 μm coronal sections encompassing the entire SNpc. As the decrease of TH-positive neurons in response to MPTP treatment is the most prominent at medial levels of the SNpc (Hayley, Crocker et al. 2004), the inventors selected the sections from the area encompassed between −3.08 and −3.20 from bregma to perform immunohistochemisty. Immunohistochemistry of brain tissues was performed as previously described (He, Yamauchi et al. 2008; Yokoyama, Takagi et al. 2008) with minor modifications. Sections were deparaffinized in xylene and rehydrated in a graded ethanol series. […] Non-specific protein binding was blocked with 10% bovine serum in PBS (0.01 M, pH 7.4). Between each treatment, the slides were washed at least three times with deionized water for 5 minutes. […] The results were analyzed by counting the numbers of TH-positive cells at ×10 magnifications on a stereomicroscope (BX51, Olympus Corp. Japan). TH-positive cells in 6 position-matched sections of each mouse were counted manually by operator who was blinded to the drug treatment. […]"}, "zebrafish larvae": {"system": "zebrafish larvae", "details": "2.5-10 μM with 10 μM MPTP, 4 days, 10 min session", "description": "The wild type zebrafish was used for this study. Embryos were collected after natural spawning, staged according to standard criteria and raised synchronously at 28.5° C. in embryo medium (13.7 mM NaCl, 540 μM KCl, pH 7.4, 25 μM Na2HPO4, 44 μM KH2PO4, 300 μM CaCl2, 100 μM MgSO4, 420 μM NaHCO3, pH 7.4). Zebrafish were staged by days post fertilization (dpf) according to criteria. […] Drugs (i.e. the five lignans) were dissolved in DMSO and directly added into the zebrafish embryo medium to treat fish. […] An equal concentration of DMSO in embryo medium was used as vehicle control in each experiment.\nThen the total distance of movement was defined as the distance (in cm) was recorded using a 96-well plate filled with 200 μL embryo medium in a 10 minutes long session. Zebrafish were allowed to accommodate to the environment of the system for 1 hour before the start of the data acquisition.\nIn this study, Zebrafish larvae at 3 dpf were exposed to 2.5-10 μM SchiA with or without 10 μM MPTP for another 4 days, and zebrafish larval co-treated with MPTP and 150 μM L-dopa or 3 μM NOM (Nomifensine) were used as positive controls. After treatment, zebrafish were collected to perform locomotion behavior test using Viewpoint Zebrabox system and total distances travelled in 10 min were calculated. […]"}}, "note": "Like-named read-outs stand apart in the source and are kept apart here."}
{"smiles": "COc1cc2c(c(OC)c1OC)-c1c(cc3c(c1OC)OCO3)C[C@H](C)[C@](C)(O)[C@H]2OC(=O)c1ccccc1", "note": "[SchiA, Schisantherin A]", "values": [{"measurement": "6-OHDA-induced reduction in p-Akt level", "setting": "Akt; 60 μM 12 h, then 400 μM 6-OHDA 4 h", "result": "prevented the reduction in p-Akt level"}, {"measurement": "p-Akt level, compound alone", "setting": "Akt; 60 μM, without 6-OHDA", "result": "did not change"}, {"measurement": "neuroprotective effect on TH-positive neurons", "setting": "[1]; 30 mg/kg", "result": "did not exert statistical significant neuroprotective effect"}, {"measurement": "neuroprotective effect on TH-positive neurons", "setting": "[1]; 100 mg/kg", "result": "did not exert statistical significant neuroprotective effect"}, {"measurement": "TH-positive neurons in SNpc", "setting": "[1]; 300 mg/kg/day i.g. 14 days, then MPTP 30 mg/kg i.p. 5 days", "result": "82±12", "unit": "cells/section"}, {"measurement": "MPTP-induced reduction of total distance of movement", "setting": "zebrafish larvae", "result": "inhibited MPTP-induced reduction of total distance of movement in zebrafish in a dose dependent manner"}]}
